The target of assay [1] is T1, recombinant human Lp-PLA2 (Homo sapiens, UniProt Q13093).
T1 sequence (Q13093 22-441): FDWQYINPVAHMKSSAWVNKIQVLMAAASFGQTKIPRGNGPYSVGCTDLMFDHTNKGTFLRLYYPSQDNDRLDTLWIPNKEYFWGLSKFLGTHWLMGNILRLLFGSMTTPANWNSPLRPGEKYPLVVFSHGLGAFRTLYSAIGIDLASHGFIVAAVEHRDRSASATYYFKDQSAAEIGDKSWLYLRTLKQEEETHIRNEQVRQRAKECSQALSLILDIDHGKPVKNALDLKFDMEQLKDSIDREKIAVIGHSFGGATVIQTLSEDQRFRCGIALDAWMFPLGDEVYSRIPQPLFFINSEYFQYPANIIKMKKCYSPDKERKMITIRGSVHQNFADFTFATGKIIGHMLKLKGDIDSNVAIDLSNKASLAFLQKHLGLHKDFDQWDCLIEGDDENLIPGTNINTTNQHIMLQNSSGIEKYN
Nature of the assay: Recombinant human Lp-PLA2 assay (rhLp-PLA2, PED6 assay). It is filed as biochemical. The text has this: (1) Recombinant Human Lp-PLA2 Assay (rhLp-PLA2) (Also Referred to as “PED6” Assay)
N-((6-(2,4-dinitrophenyl)amino)-hexanoyl)-2-(4,4-difluoro-5,7-dimethyl-4-bora-3a,4a-diaza-s-indacene-3-pentanoyl)-1-hexadecanoyl-sn-glycero-3-phosphoethanolamine, triethylammonium salt (PED6) is a commercially available fluorescently-labeled phospholipid, which is commercially available from Invitrogene and Molecular Probes. There is a quenching para-nitro phenyl (PNP) group in the sn3 position and a Bodipy fluorescein (FL) group in the sn2 position. Upon cleavage with Lp-PLA2, the Bodipy FL group is liberated and then may result in an increase in fluorescence. Inhibitors of Lp-PLA2 therefore prevent this cleavage and no fluorescent increase is observed.
The PED6 assay was run as an unquenched 10 μL assay. The source plate containing the compounds to be tested was prepared by making 1:3 (by volume) serial dilution of the compounds within DMSO on 384-well microplate. Then, 0.01 μL of the compounds on compound source plate were transferred into 384 well Greiner 784076 (black) plates using ECHO liquid dispenser. 5 μL of recombinant human Lp-PLA2 enzyme (4 nM (or 110 pM) rhLp-PLA2 in assay buffer of 50 mM HEPES, pH 7.4, 150 mM NaCl, 1 mM CHAPS) was added to each well of the plate. Plates were centrifuged for 10 sec at 500 rpm. After 30 minutes preincubation, 5 μL of substrate (4 μM (or 5 μM) PED6 [from 5 mM DMSO stock] in assay buffer of 50 mM HEPES, pH 7.4, 150 mM NaCl, 1 mM CHAPS) was added to 384 well Greiner 784076 (black) plates. Plates were centrifuged for 10 sec at 500 rpm. The plate was covered to protect it from light and incubated for 20 min at room temperature. The plates were read for fluorescence intensity at ex: 480/em: 540 using ViewLux microplate imager for Envision spectrofluroimeters. pIC50 data, curve and QC analysis was conducted by using XL fit module in Excel.

In a further assay the target is T2, Lp-PLA2 in human plasma (Homo sapiens, UniProt Q13093).
T2 construct: from tissue; host or cells: pooled human plasma
T2 sequence (Q13093 22-441): T1 sequence (Q13093 22-441)
Nature of the assay: Lp-PLA2 human plasma assay (Thio-PAF assay). In kind it is biochemical. Particulars: pooled human plasma; read-out: pIC50 values in the thio-PAF assay (converted). An excerpt: The human plasma assay utilizes a thioester analog of PAF (phosphatidylcholine), where hydrolysis yields to the formation of a phospholipid containing a free thiol group. The amount of thiol is quantitated continuously by reacting with CPM (7-diethylamino-3-(4′-maleimidylphenyl)-4-methylcoumarin), a maleimide which increases in fluoresence after Michael addition of thiols. This assay may detect the activity of Lp-PLA2 in human plasma, as determined by specific inhibition by Lp-PLA2 inhibitors.
The thio-PAF assay was run as a quenched 15 μL assay. Compounds source plate was prepared by making 1:3 (by volume) serial dilution of the compounds into pure DMSO on 384-well microplate. 0.01 μL of compounds on compound source plate were transferred to 384 well Greiner 784076 (black) low-volume plates by ECHO liquid dispenser. 8 μL pooled human plasma, which was previously aliquoted and frozen, was added. Plates were centrifuged for 10 sec at 500 rpm. After 30 minutes preincubation, 2 μL of substrate solution comprising 2.5 mM 2-thio-PAF [from ethanol stock], 32 μM CPM [from a DMSO stock] and 3.2 mM NEM (N-ethylmaleimide) [made fresh daily in DMSO] in assay buffer of 50 mM HEPES, pH 7.4, 150 mM NaCl, 1 mM CHAPS was added to 384 well Greiner 784076 (black) low-volume plates by BRAVO liquid handling station. After 2 mins, reaction was quenched with 5 μL of 5% aqueous trifluoroacetic acid (TFA). Plates were covered to protect from light and incubated for 40 min at room temperature. Plates were read at ex: 380/em: 485 using-Envision microplate reader. pIC50 data, curve and QC analysis was conducted by using XLFit module in Excel.

The mark [2] stands for this setting: read-out: pIC50 values in the recombinant human Lp-PLA2 assay (converted).
Setting [3] is: read-out: rhLp-PLA2 (PED6 assay) (pIC50) (converted).

Read-outs that look alike come from different tables or passages of the source. Where only a bound is given, the exact number is not on record here.

This note sets out measurements from US20150344485A1, “BICYCLIC PYRIMIDONE COMPOUNDS AS INHIBITORS OF LP-PLA2” (GLAXOSMITHKLINE INTELLECTUAL PROPERTY DEVELOPMENT LIMITED, priority 2013, published 2015).

`C[C@H]1CCn2c(cc(OCc3cc(F)c(Oc4ccc(C(F)(F)F)nc4)c(F)c3)nc2=O)N1C` [E46, (S)-8-((3,5-difluoro-4-((6-(trifluoromethyl)pyridin-3-yl)oxy)benzyl)oxy)-1,2-dimethyl-3,4-dihydro-1H-pyrimido[1,6-a]pyrimidin-6(2H)-one]: the values for the IC50 (in assay [1] (setting [2]); in assay [1] (setting [3]); on Lp-PLA2 in human plasma) were not above 1 nM, 0.126 nM and not above 10 nM, respectively.
In the case of `CN1c2cc(OCc3cc(F)c(F)c(F)c3)nc(=O)n2CCC1(C)C` [E54, 1,2,2-trimethyl-8-((3,4,5-trifluorobenzyl)oxy)-3,4-dihydro-1H-pyrimido[1,6-a]pyrimidin-6(2H)-one], the IC50 is not above 1 nM in assay [1] (setting [2]) and not above 100 nM on Lp-PLA2 in human plasma.
For `CCN1c2cc(OCc3cc(F)c(F)c(F)c3)nc(=O)n2CC[C@@H]1C` [E56, (S)-1-ethyl-2-methyl-8-((3,4,5-trifluorobenzyl)oxy)-3,4-dihydro-1H-pyrimido[1,6-a]pyrimidin-6(2H)-one], the IC50 in assay [1] (setting [2]) is not above 1 nM; in assay [1] (setting [3]), 0.398 nM; at Lp-PLA2 in human plasma it was not above 10 nM.
`C[C@H]1CCn2c(cc(OCc3cc(F)c(Oc4cccc(C(F)(F)F)c4)c(F)c3)nc2=O)N1C` [E62, (S)-8-((3,5-difluoro-4-(3-(trifluoromethyl)phenoxy)benzyl)oxy)-1,2-dimethyl-3,4-dihydro-1H-pyrimido[1,6-a]pyrimidin-6(2H)-one]: the results for the IC50 (in assay [1] (setting [3]); on Lp-PLA2 in human plasma) were 3.98 nM and not above 10 nM, respectively.
In the case of `[2H]C([2H])(Oc1cc2n(c(=O)n1)CCC(C)(C)N2C)c1cc(F)c(F)cc1F` [E71, 8-(dideutero(2,4,5-trifluorophenyl)methoxy)-1,2,2-trimethyl-3,4-dihydro-1H-pyrimido[1,6-a]pyrimidin-6(2H)-one], the IC50 in assay [1] (setting [2]) is not above 1 nM; on Lp-PLA2 in human plasma it was not above 100 nM.
The like results for `[2H]C([2H])(Oc1cc2n(c(=O)n1)CCC(C)(C)N2C)c1cccc(F)c1F` [E73, 8-((2,3-difluorophenyl)dideuteromethoxy)-1,2,2-trimethyl-3,4-dihydro-1H-pyrimido[1,6-a]pyrimidin-6(2H)-one] were, in that order, not above 1 nM and not above 100 nM.
On the same counts, the results for `[2H]C([2H])(Oc1cc2n(c(=O)n1)CCC(C)(C)N2C)c1cc(F)cc(F)c1` [E75, 8-((3,5-difluorophenyl)dideuteromethoxy)-1,2,2-trimethyl-3,4-dihydro-1H-pyrimido[1,6-a]pyrimidin-6(2H)-one] are not above 1 nM and not above 100 nM.
In the case of `C[C@@H]1CCn2c(cc(OCc3ccc(Oc4ccc(Cl)c(F)c4)c(C#N)c3)nc2=O)N1C` [E76, (R)-2-(4-chloro-3-fluorophenoxy)-5-(((1,2-dimethyl-6-oxo-2,3,4,6-tetrahydro-1H-pyrimido[1,6-a]pyrimidin-8-yl)oxy)methyl)benzonitrile], the IC50 was not above 1 nM in assay [1] (setting [2]) and not above 100 nM at Lp-PLA2 in human plasma.
The like results for `C[C@@H]1CCn2c(cc(OCc3cc(F)c(Oc4cccc(C(F)(F)F)c4)c(F)c3)nc2=O)N1C` [E77, (R)-8-((3,5-difluoro-4-(3-(trifluoromethyl)phenoxy)benzyl)oxy)-1,2-dimethyl-3,4-dihydro-1H-pyrimido[1,6-a]pyrimidin-6(2H)-one] were, in that order, not above 1 nM and not above 10 nM.
Consider `C[C@@H]1CCn2c(cc(OCc3ccc(Oc4ccc(C(F)(F)F)cc4)c(C#N)c3)nc2=O)N1C` [E78], for which the IC50 in assay [1] (setting [2]) was not above 1 nM; at Lp-PLA2 in human plasma, not above 100 nM.
Turning to `C[C@@H]1CCn2c(cc(OCc3ccc(Oc4ccc(F)c(Cl)c4)c(C#N)c3)nc2=O)N1C` [E79, (R)-2-(3-chloro-4-fluorophenoxy)-5-(((1,2-dimethyl-6-oxo-2,3,4,6-tetrahydro-1H-pyrimido[1,6-a]pyrimidin-8-yl)oxy)methyl)benzonitrile], the IC50 in assay [1] (setting [2]) was not above 1 nM; on Lp-PLA2 in human plasma it was not above 100 nM.
On to `C[C@@H]1CCn2c(cc(OCc3ccc(Oc4ccc(F)c(F)c4)c(F)c3)nc2=O)N1C` [E80, (R)-8-((4-(3,4-difluorophenoxy)-3-fluorobenzyl)oxy)-1,2-dimethyl-3,4-dihydro-1H-pyrimido[1,6-a]pyrimidin-6(2H)-one], for which the IC50 in assay [1] (setting [2]) is not above 1 nM; on Lp-PLA2 in human plasma, not above 100 nM.
On to `C[C@H]1CCn2c(cc(OCc3ccc(Oc4ccc(F)c(C(F)(F)F)c4)cc3)nc2=O)N1C` [E84, (S)-8-((4-(4-fluoro-3-(trifluoromethyl)phenoxy)benzyl)oxy)-1,2-dimethyl-3,4-dihydro-1H-pyrimido[1,6-a]pyrimidin-6(2H)-one], for which the IC50 was not above 1 nM in assay [1] (setting [2]) and not above 10 nM at Lp-PLA2 in human plasma.
Take `C[C@H]1CCn2c(cc(OCc3ccc(Oc4ccc(F)c(Cl)c4)c(C#N)c3)nc2=O)N1C` [E85, (S)-2-(3-chloro-4-fluorophenoxy)-5-(((1,2-dimethyl-6-oxo-2,3,4,6-tetrahydro-1H-pyrimido[1,6-a]pyrimidin-8-yl)oxy)methyl)benzonitrile]: the IC50 was not above 1 nM in assay [1] (setting [2]) and not above 10 nM at Lp-PLA2 in human plasma.
The like results for `C[C@H]1CCn2c(cc(OCc3ccc(Oc4ccc(F)c(F)c4)c(F)c3)nc2=O)N1C` [E86, (S)-8-((4-(3,4-difluorophenoxy)-3-fluorobenzyl)oxy)-1,2-dimethyl-3,4-dihydro-1H-pyrimido[1,6-a]pyrimidin-6(2H)-one] were, in that order, not above 1 nM and not above 100 nM.
Take `C[C@@H]1CCn2c(cc(OCc3ccc(Oc4ccc(F)c(C(F)(F)F)c4)cc3)nc2=O)N1C` [E87, (R)-8-((4-(4-fluoro-3-(trifluoromethyl)phenoxy)benzyl)oxy)-1,2-dimethyl-3,4-dihydro-1H-pyrimido[1,6-a]pyrimidin-6(2H)-one]: the IC50 in assay [1] (setting [2]) is not above 1 nM; on Lp-PLA2 in human plasma it was not above 10 nM.
As for `CN1c2cc(OCc3cc(F)c(Oc4ccc(C(F)(F)F)nc4)c(F)c3)nc(=O)n2CCC1(C)C` [E88, 8-((3,5-difluoro-4-((6-(trifluoromethyl)pyridin-3-yl)oxy)benzyl)oxy)-1,2,2-trimethyl-3,4-dihydro-1H-pyrimido[1,6-a]pyrimidin-6(2H)-one], the IC50 in assay [1] (setting [2]) is not above 1 nM; on Lp-PLA2 in human plasma it was not above 100 nM.
On the same counts, the results for `CN1c2cc(OCc3ccc(Oc4ccnc(C(F)(F)F)c4)c(F)c3)nc(=O)n2CCC1(C)C` [E89, 8-((3-fluoro-4-((2-(trifluoromethyl)pyridin-4-yl)oxy)benzyl)oxy)-1,2,2-trimethyl-3,4-dihydro-1H-pyrimido[1,6-a]pyrimidin-6(2H)-one] are not above 1 nM and not above 10 nM.
For `C[C@H]1CCn2c(cc(OCc3cc(F)c(Oc4ccc(F)c(F)c4)c(F)c3)nc2=O)N1C` [E90, (S)-8-((4-(3,4-difluorophenoxy)-3,5-difluorobenzyl)oxy)-1,2-dimethyl-3,4-dihydro-1H-pyrimido[1,6-a]pyrimidin-6(2H)-one], the IC50 is not above 1 nM in assay [1] (setting [2]) and not above 10 nM on Lp-PLA2 in human plasma.
